The target in the assay is human TNAP (Homo sapiens (Human), UniProt P05186). As to the kind of experiment: Inhibitory test of TNAP activity (pNPP substrate, p-nitrophenol production). The format is biochemical. The note with it: inhibition of human TNAP activity, incubated at room temperature for 60 minutes. How it is done: COS 1 cells (DS Pharma Biomedical Co., Ltd.) were transfected with human TNAP (OriGene Technologies, Inc.) using Lipofectamine LTX & Plus reagent (Invitrogen Corp.). On the next day, the medium was replaced with a fresh medium, and the cells were cultured in an incubator for 3 days. After 3 days, the culture supernatant was collected and concentrated by centrifugation at 5000 G for 30 minutes using Amicon 14, 10^4 cut (Merck Millipore). The concentrated culture supernatant was dialyzed against 5 L of 50 mM Tris/200 mM NaCl/1 mM MgCl2/20 μM ZnCl2 twice and used as an enzyme source (enzyme solution). The substrate pNPP (ProteoChem Inc.) was adjusted to 3.1 mM with Milli-Q water, and a solution of each test compound dissolved in dimethyl sulfoxide (DMSO; Wako Pure Chemical Industries, Ltd.) by 6 serial dilutions at a 5-fold common ratio from 100 μM, or DMSO was added thereto at a final concentration of 1% by volume. The enzyme solution adjusted to 2 μg/mL with an assay buffer (200 mM Tris/2 mM MgCl2/0.04 mM ZnCl2/0.01% Tween 20) was added in the same amount of the substrate solution and incubated at room temperature for 60 minutes. Then, the absorbance (ABS: 405 nm) was measured using a microplate reader (model plus 384, Molecular Devices, LLC), and the concentration of produced p-nitrophenol was calculated.
human TNAP, sequence (P05186 18-502): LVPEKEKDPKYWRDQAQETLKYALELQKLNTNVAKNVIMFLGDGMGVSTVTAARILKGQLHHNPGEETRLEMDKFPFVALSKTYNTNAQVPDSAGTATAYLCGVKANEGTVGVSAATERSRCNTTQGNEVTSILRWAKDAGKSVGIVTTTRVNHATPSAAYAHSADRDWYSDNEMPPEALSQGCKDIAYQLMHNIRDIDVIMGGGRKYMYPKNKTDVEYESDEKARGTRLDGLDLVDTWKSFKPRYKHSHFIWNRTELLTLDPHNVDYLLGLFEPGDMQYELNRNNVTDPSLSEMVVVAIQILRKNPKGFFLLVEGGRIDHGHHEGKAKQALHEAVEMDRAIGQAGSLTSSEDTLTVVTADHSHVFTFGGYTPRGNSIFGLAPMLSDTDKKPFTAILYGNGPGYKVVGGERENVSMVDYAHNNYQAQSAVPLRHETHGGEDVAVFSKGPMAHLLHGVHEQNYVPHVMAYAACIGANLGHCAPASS
What is called IC50 is the concentration at which inhibition is half-maximal. Read a high IC50 as a need for much substance. Turning to `COc1ccc(Cl)cc1S(=O)(=O)Nc1cnc2c(c1)C(=O)N(C)CCO2` [Example 1, 5-Chloro-2-methoxy-N-(4-methyl-5-oxo-2,3,4,5-tetrahydropyrido[3,2-f][1,4]oxazepin-7-yl)benzenesulfonamide], the IC50 was found to be 6.3 nM.
Take `COc1ccc(F)cc1S(=O)(=O)Nc1cnc2c(c1)C(=O)N(C)CCO2` [Example 2, 5-Fluoro-2-methoxy-N-(4-methyl-5-oxo-2,3,4,5-tetrahydropyrido[3,2-f][1,4]oxazepin-7-yl)benzenesulfonamide]: inhibition was half-maximal at 12.7 nM (IC50).
The same measure for `CCN1CCOc2ncc(NS(=O)(=O)c3cc(Cl)ccc3OC)cc2C1=O` [Example 3, 5-Chloro-N-(4-ethyl-5-oxo-2,3,4,5-tetrahydropyrido[3,2-f][1,4]oxazepin-7-yl)-2-methoxybenzenesulfonamide]: 12.8 nM; for `CCN1CCOc2ncc(NS(=O)(=O)c3cc(F)ccc3OC)cc2C1=O` [Example 4, N-(4-Ethyl-5-oxo-2,3,4,5-tetrahydropyrido[3,2-f][1,4]oxazepin-7-yl)-5-fluoro-2-methoxybenzenesulfonamide]: 22.9 nM.
`COc1ccc(Cl)cc1S(=O)(=O)Nc1cnc2c(c1)C(=O)N(C(C)C)CCO2` [Example 5, 5-Chloro-2-methoxy-N-[5-oxo-4-(propan-2-yl)-2,3,4,5-tetrahydropyrido[3,2-f][1,4]oxazepin-7-yl]benzenesulfonamide] showed a half-inhibitory concentration (IC50) of 71.3 nM. This IC50 is about 3.1-fold higher than that of the molecule before.
`COc1ccc(Cl)cc1S(=O)(=O)Nc1cnc2c(c1)C(=O)N(CCO)CCO2` [Example 6, 5-Chloro-N-[4-(2-hydroxyethyl)-5-oxo-2,3,4,5-tetrahydropyrido[3,2-f][1,4]oxazepin-7-yl]-2-methoxybenzenesulfonamide] returned an IC50 of 6.1 nM.
The same measure for `COCCN1CCOc2ncc(NS(=O)(=O)c3cc(Cl)ccc3OC)cc2C1=O` [Example 7, 5-Chloro-2-methoxy-N-[4-(2-methoxyethyl)-5-oxo-2,3,4,5-tetrahydropyrido[3,2-f][1,4]oxazepin-7-yl]benzenesulfonamide]: 10.7 nM; for `COc1ccc(CN2CCOc3ncc(NS(=O)(=O)c4cc(Cl)ccc4OC)cc3C2=O)c(OC)c1` [Example 8, 5-Chloro-N-[4-(2,4-dimethoxybenzyl)-5-oxo-2,3,4,5-tetrahydropyrido[3,2-f][1,4]oxazepin-7-yl]-2-methoxybenzenesulfonamide]: 9.1 nM.
The same measure for `COc1ccc(Cl)cc1S(=O)(=O)Nc1cnc2c(c1)C(=O)NCCO2` [Example 9, 5-Chloro-2-methoxy-N-(5-oxo-2,3,4,5-tetrahydropyrido[3,2-f][1,4]oxazepin-7-yl)benzenesulfonamide]: 1.4 nM; for `COc1ccc(F)cc1S(=O)(=O)Nc1cnc2c(c1)C(=O)NCCO2` [Example 10, 5-Fluoro-2-methoxy-N-(5-oxo-2,3,4,5-tetrahydropyrido[3,2-f][1,4]oxazepin-7-yl)benzenesulfonamide]: 4 nM; for `COc1ccc(OC)c(S(=O)(=O)Nc2cnc3c(c2)C(=O)NCCO3)c1` [Example 11, 2,5-Dimethoxy-N-(5-oxo-2,3,4,5-tetrahydropyrido[3,2-f][1,4]oxazepin-7-yl)benzenesulfonamide]: 4.8 nM.
`COc1ccccc1S(=O)(=O)Nc1cnc2c(c1)C(=O)NCCO2` [Example 12, 2-Methoxy-N-(5-oxo-2,3,4,5-tetrahydropyrido[3,2-f][1,4]oxazepin-7-yl)benzenesulfonamide]: 13.4 nM corresponded to half-maximal inhibition (IC50).
Molecule `O=C1NCCOc2ncc(NS(=O)(=O)c3cc(Cl)ccc3OC(F)(F)F)cc21` [Example 13, 5-Chloro-N-(5-oxo-2,3,4,5-tetrahydropyrido[3,2-f][1,4]oxazepin-7-yl)-2-(trifluoromethoxy)benzenesulfonamide] displayed an IC50 of 3.4 nM.
In turn, `COc1ccc(Cl)cc1S(=O)(=O)Nc1cnc2c(c1)C(=O)N(C)CC(C)O2` (stereo not drawn) [Example 14, 5-Chloro-N-(2,4-dimethyl-5-oxo-2,3,4,5-tetrahydropyrido[3,2-f][1,4]oxazepin-7-yl)-2-methoxybenzenesulfonamide] came in with an IC50 of 36.2 nM. Compared with the last molecule, the IC50 is about 11-fold higher.
As to `COc1ccc(F)cc1S(=O)(=O)Nc1cnc2c(c1)C(=O)N(C)CC(C)O2` (stereo not drawn) [Example 15, N-(2,4-Dimethyl-5-oxo-2,3,4,5-tetrahydropyrido[3,2-f][1,4]oxazepin-7-yl)-5-fluoro-2-methoxybenzenesulfonamide], 95.7 nM corresponded to half-maximal inhibition (IC50).
Molecule `COc1ccc(Cl)cc1S(=O)(=O)Nc1cnc2c(c1)C(=O)N(C)C(C)CO2` (stereo not drawn) [Example 16, 5-Chloro-N-(3,4-dimethyl-5-oxo-2,3,4,5-tetrahydropyrido[3,2-f][1,4]oxazepin-7-yl)-2-methoxybenzenesulfonamide] showed a 50% inhibitory concentration (IC50) of 6.2 nM.
In turn, `COc1ccc(F)cc1S(=O)(=O)Nc1cnc2c(c1)C(=O)N(C)C(C)CO2` (stereo not drawn) [Example 17, N-(3,4-Dimethyl-5-oxo-2,3,4,5-tetrahydropyrido[3,2-f][1,4]oxazepin-7-yl)-5-fluoro-2-methoxybenzenesulfonamide] showed a 50% inhibitory concentration (IC50) of 12.6 nM. This IC50 is about 2-fold higher than that of the molecule before.
The same measure for `COc1ccc(Cl)cc1S(=O)(=O)Nc1cnc2c(c1)C(=O)N(C)[C@@H](C)CO2` [Example 18, 5-Chloro-N-[(3S)-3,4-dimethyl-5-oxo-2,3,4,5-tetrahydropyrido[3,2-f][1,4]oxazepin-7-yl]-2-methoxybenzenesulfonamide]: 3.9 nM.
The same measure for `COc1ccc(F)cc1S(=O)(=O)Nc1cnc2c(c1)C(=O)N(C)[C@@H](C)CO2` [Example 19, N-[(3S)-3,4-Dimethyl-5-oxo-2,3,4,5-tetrahydropyrido[3,2-f][1,4]oxazepin-7-yl]-5-fluoro-2-methoxybenzenesulfonamide]: 6.4 nM; for `COc1ccc(Cl)cc1S(=O)(=O)Nc1cnc2c(c1)C(=O)N(C)[C@H](C)CO2` [Example 20, 5-Chloro-N-[(3R)-3,4-dimethyl-5-oxo-2,3,4,5-tetrahydropyrido[3,2-f][1,4]oxazepin-7-yl]-2-methoxybenzenesulfonamide]: 27.1 nM; for `COc1ccc(F)cc1S(=O)(=O)Nc1cnc2c(c1)C(=O)N(C)[C@H](C)CO2` [Example 21, N-[(3R)-3,4-Dimethyl-5-oxo-2,3,4,5-tetrahydropyrido[3,2-f][1,4]oxazepin-7-yl]-5-fluoro-2-methoxybenzenesulfonamide]: 46 nM.
The same measure for `COc1ccc(Cl)cc1S(=O)(=O)Nc1cnc2c(c1)C(=O)N[C@@H](C)CO2` [Example 22, 5-Chloro-2-methoxy-N-[(3S)-3-methyl-5-oxo-2,3,4,5-tetrahydropyrido[3,2-f][1,4]oxazepin-7-yl]benzenesulfonamide]: 1.7 nM; for `COc1ccc(F)cc1S(=O)(=O)Nc1cnc2c(c1)C(=O)N[C@@H](C)CO2` [Example 23, 5-Fluoro-2-methoxy-N-[(3S)-3-methyl-5-oxo-2,3,4,5-tetrahydropyrido[3,2-f][1,4]oxazepin-7-yl]benzenesulfonamide]: 3.5 nM.
Molecule `CC[C@H]1COc2ncc(NS(=O)(=O)c3cc(Cl)ccc3OC)cc2C(=O)N1C` [Example 24, 5-Chloro-N-[(3S)-3-ethyl-4-methyl-5-oxo-2,3,4,5-tetrahydropyrido[3,2-f][1,4]oxazepin-7-yl]-2-methoxybenzenesulfonamide] came in with an IC50 of 7.2 nM. This IC50 is about 2.1-fold higher than that of the molecule before.
The same measure for `CC[C@H]1COc2ncc(NS(=O)(=O)c3cc(Cl)ccc3OC)cc2C(=O)N1` [Example 25, 5-Chloro-N-[(3S)-3-ethyl-5-oxo-2,3,4,5-tetrahydropyrido[3,2-f][1,4]oxazepin-7-yl]-2-methoxybenzenesulfonamide]: 1.7 nM; for `COc1ccc(Cl)cc1S(=O)(=O)Nc1cnc2c(c1)C(=O)N[C@@H](C(C)C)CO2` [Example 26, 5-Chloro-2-methoxy-N-[(3S)-5-oxo-3-(propan-2-yl)-2,3,4,5-tetrahydropyrido[3,2-f][1,4]oxazepin-7-yl]benzenesulfonamide]: 8.7 nM.
For `COc1ccc(Cl)cc1S(=O)(=O)Nc1cnc2c(c1)C(=O)N[C@@H](CO)CO2` [Example 27, 5-Chloro-N-[(3S)-3-(hydroxymethyl)-5-oxo-2,3,4,5-tetrahydropyrido[3,2-f][1,4]oxazepin-7-yl]-2-methoxybenzenesulfonamide], the concentration for half-maximal inhibition (IC50) turned out to be 1.5 nM.
The same measure for `COc1ccc(F)cc1S(=O)(=O)Nc1cnc2c(c1)C(=O)N[C@@H](CO)CO2` [Example 28, 5-Fluoro-N-[(3S)-3-(hydroxymethyl)-5-oxo-2,3,4,5-tetrahydropyrido[3,2-f][1,4]oxazepin-7-yl]-2-methoxybenzenesulfonamide]: 3.6 nM; for `COc1ccc(Br)cc1S(=O)(=O)Nc1cnc2c(c1)C(=O)N[C@@H](CO)CO2` [Example 29, 5-Bromo-N-[(3S)-3-(hydroxymethyl)-5-oxo-2,3,4,5-tetrahydropyrido[3,2-f][1,4]oxazepin-7-yl]-2-methoxybenzenesulfonamide]: 1.2 nM.
`COc1ccc(OC)c(S(=O)(=O)Nc2cnc3c(c2)C(=O)N[C@@H](CO)CO3)c1` [Example 30, N-[(3S)-3-(Hydroxymethyl)-5-oxo-2,3,4,5-tetrahydropyrido[3,2-f][1,4]oxazepin-7-yl]-2,5-dimethoxybenzenesulfonamide] registered an IC50 of 3.8 nM.

The record behind these values is patent publication US9879032B2, “Pyridine compounds” (Daiichi Sankyo Company, Limited, priority 2015, dated 2018).
